In paper PMC8320996, “Negative regulation of melatonin secretion by melatonin receptors in ovine pinealocytes” (PLoS ONE, 2021):

Biological target: T1, MT1
T1 construct: gene MTNR1A; native receptors in primary ovine pinealocytes (MT1 and MT2 not resolved)
Test: saturation radioligand binding on primary ovine pinealocytes, Scatchard analysis
Type: cell-based, Ovis aries

Structure (SMILES): COc1ccc2[nH]c(I)c(CCNC(C)=O)c2c1 [2-[^125I]-MLT]
- Kd: 2.24 ± 1.1 nM
